Entries after “also recorded” stand apart in the source; their conditions may differ. Square brackets hold non-standard residues; d marks the D form. Ends that are not written are not given here. Peptide text beside a SMILES is read from it.
Key:
[1] = tested on: mice without acute pancreatitis; test: Control groups: mice given galanin or galanin antagonist alone (saline, no caerulein); conditions: mice without AP
[2] = target: T1, GALR2 (Homo sapiens, UniProt O43603); conditions: GALR2 vs GALR1; cited from earlier work
T1 sequence (O43603 1-387): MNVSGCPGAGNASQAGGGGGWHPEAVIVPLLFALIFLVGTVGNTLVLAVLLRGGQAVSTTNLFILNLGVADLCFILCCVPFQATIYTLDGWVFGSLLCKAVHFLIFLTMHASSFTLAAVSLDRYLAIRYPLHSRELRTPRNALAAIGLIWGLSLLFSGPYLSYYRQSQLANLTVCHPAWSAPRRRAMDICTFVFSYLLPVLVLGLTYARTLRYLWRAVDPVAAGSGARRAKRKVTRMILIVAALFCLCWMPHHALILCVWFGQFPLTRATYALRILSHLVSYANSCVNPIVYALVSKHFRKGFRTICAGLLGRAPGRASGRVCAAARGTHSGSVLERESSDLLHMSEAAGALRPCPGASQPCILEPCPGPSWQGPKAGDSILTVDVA

[3] = tested on: caerulein-induced acute pancreatitis (AP) in mice; test: Caerulein-induced acute pancreatitis in mice (mild model, 7 hourly i.p. injections) with galanin or galanin antagonists; assay type: in vivo, mouse (female Balb C or Swiss); conditions: mouse caerulein AP
[4] = 20 nmol/kg i.p. with each caerulein injection, reduction of AP-induced level
[5] = 40 nmol/kg i.p. with each caerulein injection, vs AP alone
[6] = dose not given (20 and 40 nmol/kg tested)
[7] = dose not given (20 and 40 nmol/kg tested), decrease of AP-induced level
[8] = 40 nmol/kg i.p. with each caerulein injection, reduction of AP-induced level

Molecule: CC(C)C[C@H](NC(=O)[C@H](CC(C)C)NC(=O)[C@@H](Cc1c[nH]c2ccccc12)NC(=O)[C@H](Cc1ccccc1)NC(=O)[C@@H](Cc1c[nH]c2ccccc12)NC(=O)[C@H](CCC(N)=O)NC(=O)[C@H](CCC(N)=O)NC(=O)[C@@H]1CCCN1C(=O)[C@H](CCCCN)NC(=O)[C@@H]1CCCN1C(=O)[C@@H](CCCNC(=N)N)NC(=O)[C@@H]1CCCN1C(=O)CNC(=O)[C@H](CC(C)C)NC(=O)[C@H](CC(C)C)NC(=O)[C@H](Cc1ccc(O)cc1)NC(=O)CNC(=O)[C@H](C)NC(=O)[C@H](CO)NC(=O)[C@H](CC(N)=O)NC(=O)[C@H](CC(C)C)NC(=O)[C@@H](NC(=O)[C@H](Cc1c[nH]c2ccccc12)NC(=O)CN)[C@@H](C)O)C(N)=O [C7, Galanin(1-13)-spantide amide] (H-GWTLNSAGYLLGP[dR]PKPQQ[dW]F[dW]LL-NH2)
- pancreatic myeloperoxidase (MPO) activity ([1]; 40 nmol/kg alone): produced an increase in pancreatic MPO activity; also recorded: significantly elevated pancreatic MPO activity

Molecule: CC(C)C[C@H](NC(=O)CNC(=O)[C@H](CC(N)=O)NC(=O)[C@H](CCCCN)NC(=O)[C@H](CC(=O)O)NC(=O)[C@H](CO)NC(=O)[C@H](Cc1ccccc1)NC(=O)[C@H](CO)NC(=O)[C@H](CCCNC(=N)N)NC(=O)[C@H](Cc1cnc[nH]1)NC(=O)[C@H](CC(N)=O)NC(=O)CNC(=O)[C@@H](NC(=O)[C@H](C)NC(=O)[C@H](Cc1cnc[nH]1)NC(=O)[C@@H]1CCCN1C(=O)CNC(=O)[C@H](CC(C)C)NC(=O)[C@H](CC(C)C)NC(=O)[C@H](Cc1ccc(O)cc1)NC(=O)CNC(=O)[C@H](C)NC(=O)[C@H](CO)NC(=O)[C@H](CC(N)=O)NC(=O)[C@H](CC(C)C)NC(=O)[C@@H](NC(=O)[C@H](Cc1c[nH]c2ccccc12)NC(=O)CN)[C@@H](C)O)C(C)C)C(=O)N[C@H](C(=O)N[C@@H](CO)C(=O)O)[C@@H](C)O [Galanin]
- plasma amylase activity ([1]; 10 nmol/kg alone, vs baseline): did not increase plasma amylase activity above baseline activity
- plasma lipase activity ([1]; 10 nmol/kg alone, vs baseline): did not increase plasma lipase activity above baseline activity
- pancreatic myeloperoxidase (MPO) activity ([1]; 10 nmol/kg alone, vs saline control): did not significantly increase pancreatic MPO activity above that measured in saline control

Molecule: Galanin 2-29: galanin fragment 2-29 (WTLNSAGYLLGPHAVGNHRSFSDKNGLT; ends and bridges not checked; UniProt P22466 34-61, looked up, fragment)
- affinity for GALR2 relative to GALR1 [2]: higher affinity than GALR1

Molecule: Galanin(1-13)-Pro-Pro-Ala-Leu-Ala-Leu-Ala amide (GWTLNSAGYLLGPPPALALA-NH2) [M40]
- pancreatic acinar cell vacuolization score ([3]; 20 nmol/kg): significantly reduced
- pancreatic myeloperoxidase (MPO) activity [3, 4]: significantly reduced
- pancreatic acinar cell vacuolization score ([3]; 40 nmol/kg): significantly reduced
- pancreatic myeloperoxidase (MPO) activity [3, 5]: significantly reduced
- pancreatitis-induced plasma hyperenzymemia ([3]; co-treatment, 20 and 40 nmol/kg tested): failure to reduce the pancreatitis-induced plasma hyperenzymemia
- pancreatic acinar cell necrosis score [3, 6]: without effect
- pancreatic acinar cell vacuolization score [3, 6]: did
- pancreatic myeloperoxidase (MPO) activity [3, 7]: decreased

Molecule: M35: GWTLNSAGYLLGPPPGFSPFR (SEQ ID NO: 15); amino terminal portion of galanin linked to bradykinin
- pancreatic myeloperoxidase (MPO) activity [3, 4]: significantly reduced
- pancreatic acinar cell necrosis score ([3]; 40 nmol/kg (high dose), histology scoring system): reduced the necrosis score; also recorded: significantly reduced
- plasma amylase activity [3, 8]: depressed; also recorded: significantly reduced
- plasma lipase activity [3, 8]: significantly reduced
- pancreatic myeloperoxidase (MPO) activity [3, 5]: significantly reduced
- pancreatic acinar cell vacuolization score [3, 6]: failed to improve the acute pancreatitic-induced vacuolization; also recorded: without effect
- pancreatic myeloperoxidase (MPO) activity [3, 7]: decreased
